Changes are numbered by the printed parent chain.
Legend:
Experiment in all cases: GCMS product formation, yeast microsomes
Type in all cases: biochemical
SaCYP76F41 = biological target: T1, SaCYP76F41 (Santalum album, UniProt V5RFE4); settings: substrate in mixture of santalenes and α-exo-bergamotene, 40 µM, NADPH 0.8 mM, pH 7.5, 30°C, 2 h, with SaCPR
T1 construct: gene CYP76F41; full-length cDNA in pYEDP60, yeast BY4741 microsomes, co-expressed with S. album CPR2 (KC842188)
T1 sequence (V5RFE4 1-509): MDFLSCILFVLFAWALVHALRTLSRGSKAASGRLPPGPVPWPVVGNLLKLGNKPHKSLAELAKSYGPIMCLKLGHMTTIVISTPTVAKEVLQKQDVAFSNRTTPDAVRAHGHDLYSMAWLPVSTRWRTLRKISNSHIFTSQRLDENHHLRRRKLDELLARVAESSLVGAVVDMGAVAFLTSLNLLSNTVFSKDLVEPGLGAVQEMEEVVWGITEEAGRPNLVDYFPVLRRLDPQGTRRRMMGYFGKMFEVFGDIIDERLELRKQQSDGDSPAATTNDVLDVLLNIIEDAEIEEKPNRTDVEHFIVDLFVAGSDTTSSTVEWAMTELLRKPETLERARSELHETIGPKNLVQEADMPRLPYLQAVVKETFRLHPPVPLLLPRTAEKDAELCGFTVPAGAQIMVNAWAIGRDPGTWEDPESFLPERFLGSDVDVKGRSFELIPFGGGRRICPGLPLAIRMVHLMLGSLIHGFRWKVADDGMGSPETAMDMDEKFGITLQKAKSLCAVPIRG

SaCYP76F39v2 = biological target: T2, SaCYP76F39v2 (Santalum album, UniProt V5RGD0); settings: substrate in mixture of santalenes and α-exo-bergamotene, 40 µM, NADPH 0.8 mM, pH 7.5, 30°C, 2 h, with SaCPR
T2 construct: gene CYP76F39v2; full-length cDNA in pYEDP60, yeast BY4741 microsomes, co-expressed with S. album CPR2 (KC842188)
T2 sequence (V5RGD0 1-509): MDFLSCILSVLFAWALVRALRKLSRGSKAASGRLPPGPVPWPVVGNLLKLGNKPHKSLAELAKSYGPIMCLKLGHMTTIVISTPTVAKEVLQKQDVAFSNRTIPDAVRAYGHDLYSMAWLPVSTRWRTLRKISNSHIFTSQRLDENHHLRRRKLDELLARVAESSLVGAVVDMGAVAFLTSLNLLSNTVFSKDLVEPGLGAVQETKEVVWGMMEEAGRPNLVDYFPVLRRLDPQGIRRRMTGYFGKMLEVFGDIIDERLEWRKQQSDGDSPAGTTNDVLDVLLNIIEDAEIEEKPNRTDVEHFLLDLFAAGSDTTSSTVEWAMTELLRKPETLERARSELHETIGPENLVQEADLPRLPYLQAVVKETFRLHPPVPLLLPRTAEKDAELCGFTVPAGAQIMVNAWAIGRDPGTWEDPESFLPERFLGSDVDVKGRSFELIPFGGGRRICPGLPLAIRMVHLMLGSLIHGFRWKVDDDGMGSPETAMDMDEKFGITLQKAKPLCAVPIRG

SaCYP76F39v1 = biological target: T3, SaCYP76F39v1 (Santalum album, UniProt V5RH69); settings: NADPH 0.8 mM; potassium phosphate pH 7.5; 30°C; 20 min; with SaCPR; TLC-enriched substrate; read-out: apparent Km
T3 construct: gene CYP76F39v1; full-length cDNA in pYEDP60, yeast BY4741 microsomes, co-expressed with S. album CPR2 (KC842188)
T3 sequence (V5RH69 1-509): T2 sequence (V5RGD0 1-509) with S9F, R21P, K22T, I103T, Y110H

SaCYP76F37v1 = biological target: T4, SaCYP76F37v1 (Santalum album, UniProt V5RGC8); settings: NADPH 0.8 mM; potassium phosphate pH 7.5; 30°C; 20 min; with SaCPR; TLC-enriched substrate; read-out: apparent Km
T4 construct: gene CYP76F37v1; full-length cDNA in pYEDP60, yeast BY4741 microsomes, co-expressed with S. album CPR2 (KC842188)
T4 sequence (V5RGC8 1-509): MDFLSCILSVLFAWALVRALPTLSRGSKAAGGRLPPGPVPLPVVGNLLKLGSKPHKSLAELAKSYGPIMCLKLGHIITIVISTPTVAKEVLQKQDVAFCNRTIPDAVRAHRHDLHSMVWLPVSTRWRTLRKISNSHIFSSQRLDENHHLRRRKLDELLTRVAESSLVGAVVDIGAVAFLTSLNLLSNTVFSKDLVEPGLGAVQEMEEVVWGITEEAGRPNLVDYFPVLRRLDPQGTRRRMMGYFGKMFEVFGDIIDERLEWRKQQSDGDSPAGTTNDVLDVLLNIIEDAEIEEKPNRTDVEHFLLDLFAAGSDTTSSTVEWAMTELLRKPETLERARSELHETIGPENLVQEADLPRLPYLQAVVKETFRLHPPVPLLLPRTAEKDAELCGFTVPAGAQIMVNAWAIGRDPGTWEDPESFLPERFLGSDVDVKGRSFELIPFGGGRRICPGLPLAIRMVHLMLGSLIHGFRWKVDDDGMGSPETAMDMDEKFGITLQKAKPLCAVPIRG

[1] = products (Z)- and (E)-α-santalol
[2] = products (Z)- and (E)-β-santalol

Row | SMILES | GCMS product formation, yeast microsomes (SaCYP76F41; [1]) | GCMS product formation, yeast microsomes (SaCYP76F39v2; [1]) | GCMS product formation, yeast microsomes (SaCYP76F41; [2]) | Km (SaCYP76F39v1) | GCMS product formation, yeast microsomes (SaCYP76F39v2; [2]) | Km (SaCYP76F37v1)
1 | CC(C)=CCCC1(C)C2CC3C(C2)C31C (stereo not drawn) [compound 1, α-santalene] | gave product profiles similar to that observed with CYP76F39v1 | gave product profiles similar to that observed with CYP76F39v1 | – | – | – | –
2 | C=C1[C@@H]2CC[C@@H](C2)[C@@]1(C)CCC=C(C)C [compound 4, β-santalene] | – | – | gave product profiles similar to that observed with CYP76F39v1 | 34.8 µM | gave product profiles similar to that observed with CYP76F39v1 | 157 µM
